Laboratory results: patent EP2345639A1, “Cyclic hydroxylamine derivatives, their preparation and use as antioxidants” (ABIOGEN PHARMA S.p.A., priority 2009, dated 2011)
Where two headings read alike, the source gives them in different places.

Key:
[1] = Brain-to-plasma concentration ratio in mice; type: in vivo, Female CD-1 mice; conditions: female, CD-1, mouse, ip, 25 mg/kg intraperitoneal, area under the curve of brain and plasma concentrations 0 to 60 minutes, read-out: B/P ratio
Procedure: The ability of the compounds of the invention to penetrate the brain was investigated by measuring their brain/plasma (B/P) ratio in mice following intraperitoneal administration.
Female CD-1 mice were used (n=3 for each time period) and received the compounds of the invention by intraperitoneal administration, in 25 mg/kg doses in a 0.5% NaHCO3 buffer (pH 8.3). At predefined intervals following said administration, i.e. 5, 15, 30 and 60 minutes, the mice were killed and both plasma and total brain tissue were collected.
Specifically, after anaesthesia with ether, the animals were bled by blood withdrawal from the abdominal aorta then immediately decapitated. The blood samples were collected into plasma separator tubes containing Li-Heparin as anticoagulant and centrifuged. The resulting plasma was then stored at -20 °C. The brain was rapidly removed from the cranium and weighed, subsequently frozen and stored at -20 °C before treatment by homogenization and HPLC analysis.
The plasma was thawed and mixed with an equal volume of the extraction solution.
1 ml of solution was then extracted by adding 20 µl of 70% HClO4, then centrifuged at 15,500g for 5 minutes and injected into the HPLC.
Each brain was thawed and homogenized with the extraction solution to provide a final composition of 4 ml/1g of tissue by means of an Ultra-Turrax blender and sonicated for 5 minutes. After centrifugation of the homogenate at 15,500g for 5 minutes, the resulting solution was treated with HClO4, as indicated for the plasma. Specific chromatographic conditions had been developed for each analyte, the calibration curve being constructed for plasma and brain homogenate.

healthy animals = test: Effect of the compounds on healthy animals (same in vivo assay, cerebral oxidative parameters); design: species or system mice; conditions: for Brain/BWi / CAT/pr / GPX/pr / GSH/pr / GST/pr / Prot. Hmg / Prot. Ox/pr / SOD/pr: 50 mg/kg IP x3 days, percentage change relative to the vehicle
Procedure: (§1) 10 mice were used for each treatment group. For each compound 50 mg/kg were administered intraperitoneally (IP) for three consecutive days (day 0, 1 and 2); half the animals (5) also received IP 16.7 mg/kg of doxorubicin immediately after the first treatment (day 0). On the day after the last administration (day 3) the animals were killed by neck dislocation and the brains were removed, weighed and frozen in liquid nitrogen.
(§2) For the analyses of oxidative stress, 100 mg/ml of brain homogenate was prepared in HEB^(*) buffer (pH 7.4 EDTA/HEPES^(**)) containing a mixture of enzyme inhibitors (Leupeptin, Pepstatin, Aprotinin, BHA).
(§3) The evaluation parameters were: • BrW/BWi: ratio between final brain weight and initial body weight (day 0); • Prot. Hmg: total proteins in the homogenate (BCA method, i.e. bicinchoninic acid); • Prot. Ox: oxidized proteins in the Hmg by means of a colorimetric method using dinitrophenylhydrazone (DNPH); • GSH: reduced glutathione in the supernatant (sn) of the Hmg, obtained after precipitation with metaphosphoric acid (MPA), by means of a colorimetric method using dithiodinitrobenzene (DTNB); • CAT: catalase in the Hmg by a colorimetric method using potassium dichromate; • SOD: superoxide dismutase by a colorimetric method using SOD Reagent (xanthine, EDTA, nitroblue tetrazole, Na2CO3, BSA, i.e. bovine serum albumin); • GST: glutathione S-transferase in the supernatant by a colorimetric method using chlorodinitrobenzene (CDNB) and GSH; and • GPx: glutathione peroxidase in the supernatant after addition of GSH and t-BuOOH, heating and precipitation with MPA; followed by GSH method with DTNB. The assay was performed on the compounds (1)-(5) and (7)-(11) and on edaravone (E), as comparative compound.
The mean % effect, on all the parameters simultaneously, of the triple treatment in healthy animal, as mean percentage change relative to the vehicle. This value is useful as an approximate safety index of the oxidative state of the brain, i.e. the capacity of the compounds of the invention not to alter cerebral homeostasis in healthy animals.

[2] = system: doxorubicin-induced cerebral oxidative stress in mice; test: In vivo assay of cerebral oxidative stress induced in mice by doxorubicin (model and oxidized animals); conditions: for inhibition in vivo at 50 mg/kg / change in vivo at 50 mg/kg: Mus musculus; for inhibition in vivo at 50 mg/kg: overall, read-out: inhibition of the doxorubicin effect
Procedure: The assay was carried out on compounds (1)-(5) and (7)-(11) and on edaravone (E) as comparative compound.
as §1, §2, §3
The mean effect (n=5 experiments) of doxorubicin (D), i.e. "oxidized" animal, relative to the vehicle (V), the vehicle representing the healthy animal.
All the parameters, with the exclusion of Brain/BWi and Prot. Hmg, were normalized for total Hmg proteins. The D value standard deviations and the % incidence relative to V are given in italics.
The effect of the tested compounds on the "oxidized" animals was given as % inhibition relative to the percentage change due to doxorubicin alone. The effect of the compounds on the oxidized animals can be expressed both as a function of the values of the vehicle (healthy, vehicle only) and as a function of the value of its own (healthy, compound only): • Vehicle: percentage [(Compound+D)/V]x100/[(V+D)/V]x100 • Its own: percentage [(Compound+D)/Compound]x100/[(V+D)/V]x100
Again in this case, the mean % effect relative to doxorubicin alone could be given for all the parameters simultaneously, as an approximate index of effectiveness on the cerebral oxidative state of the animal.

[3] = Acid dissociation constants (pKa) by titration; type: physicochemical; conditions: pH at semi-neutralization point of titration with 0.1 N NaOH or HCl
Procedure: The following equipment was used during the implementation of all the examples: • for melting point determination a Buchi B-540 instrument was used; • the pKa is the pH at the semi-neutralization point of titration using a Mettler Toledo DL-50 instrument with a 0.1 N NaOH or HC! solution; • the ^1H-NMR spectra were recorded at 300 MHz and the ^13C-NMR spectra were recorded at 75 MHz using a Varian Unity 300 instrument; • spectrophotometric measurements were carried out using a Lambda Perkin Elmer 15 UV/Vis spectrophotometer for the DPPH assay and a Wallac Victor 1420 multilabel counter spectrophotometer.

[4] = ip, compared with its own vehicle
[5] = ip, oxidized mice, % inhibition relative to change due to doxorubicin alone, vs its own, read-out: Brain/BWi its own
[6] = ip, oxidized mice, % inhibition relative to change due to doxorubicin alone, vs its own, read-out: CAT/pr its own
[7] = ip, oxidized mice, % inhibition relative to change due to doxorubicin alone, vs its own, read-out: GPX/pr its own
[8] = ip, oxidized mice, % inhibition relative to change due to doxorubicin alone, vs its own, read-out: GSH/pr its own
[9] = ip, oxidized mice, % inhibition relative to change due to doxorubicin alone, vs its own, read-out: GST/pr its own
[10] = ip, oxidized mice, % inhibition relative to change due to doxorubicin alone, vs its own, read-out: Prot. Hmg its own
[11] = ip, oxidized mice, % inhibition relative to change due to doxorubicin alone, vs its own, read-out: Prot. Ox/pr its own
[12] = ip, oxidized mice, % inhibition relative to change due to doxorubicin alone, vs its own, read-out: SOD/pr its own
[13] = ip, oxidized mice, % inhibition relative to change due to doxorubicin alone, vs vehicle, read-out: Brain/BWi vehicle
[14] = ip, oxidized mice, % inhibition relative to change due to doxorubicin alone, vs vehicle, read-out: CAT/pr vehicle
[15] = ip, oxidized mice, % inhibition relative to change due to doxorubicin alone, vs vehicle, read-out: GPX/pr vehicle
[16] = ip, oxidized mice, % inhibition relative to change due to doxorubicin alone, vs vehicle, read-out: GSH/pr vehicle
[17] = ip, oxidized mice, % inhibition relative to change due to doxorubicin alone, vs vehicle, read-out: GST/pr vehicle
[18] = ip, oxidized mice, % inhibition relative to change due to doxorubicin alone, vs vehicle, read-out: Prot. Hmg vehicle
[19] = ip, oxidized mice, % inhibition relative to change due to doxorubicin alone, vs vehicle, read-out: Prot. Ox/pr vehicle
[20] = ip, oxidized mice, % inhibition relative to change due to doxorubicin alone, vs vehicle, read-out: SOD/pr vehicle
[21] = oxidized mice, 50 mg/kg IP x3 days + doxorubicin, computed as a function of its own (healthy, compound only), read-out: mean % effect relative to doxorubicin alone, all parameters (Its own)

CC1=NN(c2ccccc2)C(=O)C1 [edaravone, reference compound]
Kp [1]: 0.123 | Average % variation with respect to the vehicle (healthy animals; healthy mice, 50 mg/kg IP for three consecutive days, mean over all parameters, D = doxorubicin alone): -2.7% | Brain/BWi (healthy animals; healthy mice): 2.7% | CAT/pr (healthy animals; healthy mice): -5.0% | GPX/pr (healthy animals; healthy mice): -6.7% | GSH/pr (healthy animals; healthy mice): -5.5% | GST/pr (healthy animals; healthy mice): -3.1% | Prot. Hmg (healthy animals; healthy mice): 3.7% | Prot. Ox/pr (healthy animals; healthy mice): -2.3% | SOD/pr (healthy animals; healthy mice): -2.2% | inhibition in vivo at 50 mg/kg [2, 4]: 75% | inhibition in vivo at 50 mg/kg ([2]; ip, with respect to the vehicle): ~75% | change in vivo at 50 mg/kg [2, 5]: -13% | change in vivo at 50 mg/kg [2, 6]: -120% | change in vivo at 50 mg/kg [2, 7]: -130% | change in vivo at 50 mg/kg [2, 8]: -111% | change in vivo at 50 mg/kg [2, 9]: -126% | change in vivo at 50 mg/kg [2, 10]: -117% | change in vivo at 50 mg/kg [2, 11]: -5.2% | change in vivo at 50 mg/kg [2, 12]: -49% | change in vivo at 50 mg/kg [2, 13]: -44.9% | change in vivo at 50 mg/kg [2, 14]: -100% | change in vivo at 50 mg/kg [2, 15]: -106% | change in vivo at 50 mg/kg [2, 16]: -59.2% | change in vivo at 50 mg/kg [2, 17]: -110% | change in vivo at 50 mg/kg [2, 18]: -102% | change in vivo at 50 mg/kg [2, 19]: -22.7% | change in vivo at 50 mg/kg [2, 20]: -32.9% | change in vivo at 50 mg/kg [2, 21]: -77.2% | mean % effect relative to doxorubicin alone, all parameters (Vehicle) ([2]; oxidized mice, 50 mg/kg IP x3 days + doxorubicin, computed as a function of the vehicle): -72.3%

O=C1CCC(=O)C1C1COCCN1O (stereo not shown) [(7), 2-(4-hydroxymorpholin-3-yl)-cyclopentane-1,3-dione]
Kp [1]: > 0.1 | pKa1 [3]: 2.32 | pKa2 [3]: 4.98 | Average % variation with respect to the vehicle (healthy animals; healthy mice, 50 mg/kg IP for three consecutive days, mean over all parameters, D = doxorubicin alone, 50 mg/kg): did not significantly alter the parameters | Average % variation with respect to the vehicle (healthy animals; healthy mice, 50 mg/kg IP for three consecutive days, mean over all parameters, D = doxorubicin alone, listed as V+(7), 50 mg/kg): -3.5% | Brain/BWi (healthy animals; healthy mice): -9.8% | CAT/pr (healthy animals; healthy mice): -11.6% | GPX/pr (healthy animals; healthy mice): -0.8% | GSH/pr (healthy animals; healthy mice): -9.5% | GST/pr (healthy animals; healthy mice): -0.5% | Prot. Hmg (healthy animals; healthy mice): 3.6% | Prot. Ox/pr (healthy animals; healthy mice): -7.2% | SOD/pr (healthy animals; healthy mice): 0.5% | inhibition in vivo at 50 mg/kg [2, 4]: ~85% | change in vivo at 50 mg/kg [2, 5]: -85.5% | change in vivo at 50 mg/kg [2, 6]: -45.5% | change in vivo at 50 mg/kg [2, 7]: -30.3% | change in vivo at 50 mg/kg [2, 8]: -138% | change in vivo at 50 mg/kg [2, 9]: -29.7% | change in vivo at 50 mg/kg [2, 10]: -48.2% | change in vivo at 50 mg/kg [2, 11]: 20.3% | change in vivo at 50 mg/kg [2, 12]: -23.8% | change in vivo at 50 mg/kg [2, 13]: 21.7% | change in vivo at 50 mg/kg [2, 14]: 2.3% | change in vivo at 50 mg/kg [2, 15]: -23.2% | change in vivo at 50 mg/kg [2, 16]: -60.8% | change in vivo at 50 mg/kg [2, 17]: -22% | change in vivo at 50 mg/kg [2, 18]: -14.5% | change in vivo at 50 mg/kg [2, 19]: -22.1% | change in vivo at 50 mg/kg [2, 20]: -25.9% | change in vivo at 50 mg/kg [2, 21]: -85.5%

O=C1c2ccccc2C(=O)C1C1COCCN1O (stereo not shown) [(8), 2-(4-hydroxymorpholin-3-yl)-2H-indene-1,3-dione]
pKa1 [3]: 2.17 | pKa2 [3]: 5.98 | Average % variation with respect to the vehicle (healthy animals; mouse, in vivo, ip, 50 mg/kg): -8.0% | inhibition in vivo at 50 mg/kg [2, 4]: 45 to 50% | change in vivo at 50 mg/kg [2, 5]: -103% | change in vivo at 50 mg/kg [2, 6]: -28.8% | change in vivo at 50 mg/kg [2, 7]: -2% | change in vivo at 50 mg/kg [2, 8]: -139% | change in vivo at 50 mg/kg [2, 9]: -14.3% | change in vivo at 50 mg/kg [2, 10]: -20.5% | change in vivo at 50 mg/kg [2, 11]: -96.5% | change in vivo at 50 mg/kg [2, 12]: -11.9% | change in vivo at 50 mg/kg [2, 13]: 0% | change in vivo at 50 mg/kg [2, 14]: 27.3% | change in vivo at 50 mg/kg [2, 15]: 29.3% | change in vivo at 50 mg/kg [2, 16]: -48% | change in vivo at 50 mg/kg [2, 17]: 68.1% | change in vivo at 50 mg/kg [2, 18]: 49.4% | change in vivo at 50 mg/kg [2, 19]: -65.7% | change in vivo at 50 mg/kg [2, 20]: 11.9% | change in vivo at 50 mg/kg [2, 21]: -45.6%
